Laboratory results taken from US8377851B2, “Method of altering the alkaloid composition in poppy plants” (priority 2004, dated 2013).
Where two headings read alike, the source gives them in different places.

Experiments:
[1] = tested on: morphine crop; set-up: species or system Papaver somniferum; settings: in vivo
[2] = tested on: morphine crop; test: Example 29 field trial: methyl jasmonate, capsule/seed ratio and alkaloid assay
[3] = tested on: morphine crop; set-up: species or system Papaver somniferum; settings: in vivo; remark: listed apart in the source

O=C(O)CN(CCN(CC(=O)O)CC(=O)O)CC(=O)O [EDTA]
CAPSULE/SEED RATIO [1]: 0.590 c
CODEINE kg/ha [1]: 0.790 b kg/ha
MORPHINE kg/ha [1]: 32.97 a kg/ha
ORIPAVINE kg/ha [1]: 0.618 c kg/ha
SEED kg/ha [1]: 1960 a kg/ha
STRAW CODEINE % [1]: 0.047 b %
STRAW MORPHINE % [1]: 1.98 a %
STRAW O'PAVINE % [1]: 0.036 b %
STRAW THEBAINE % [1]: 0.139 c %
STRAW kg/ha [1]: 1668 b kg/ha
THEBAINE kg/ha [1]: 2.350 c kg/ha
YIELD t/ha [1]: 3.63 ab t/ha

CC/C=C\CC1C(=O)CCC1CC(=O)OC (centres unmarked) [METHYL JASMONATE, methyl jasmonate]
CAPSULE/SEED RATIO ([2]; METHYL JAS .15 L/ha at EF): 0.575 a
STRAW CODEINE ([2]; METHYL JAS .15 L/ha at EF): 0.064 b %
STRAW MORPHINE ([2]; METHYL JAS .15 L/ha at EF): 2.04 a %
STRAW O'PAVINE ([2]; METHYL JAS .15 L/ha at EF): 0.009 b %
STRAW THEBAINE ([2]; METHYL JAS .15 L/ha at EF): 0.042 b %
CAPSULE/SEED RATIO ([2]; METHYL JAS .15 L/ha at GCAPS): 0.577 a
STRAW CODEINE ([2]; METHYL JAS .15 L/ha at GCAPS): 0.044 c %
STRAW MORPHINE ([2]; METHYL JAS .15 L/ha at GCAPS): 2.01 a %
STRAW O'PAVINE ([2]; METHYL JAS .15 L/ha at GCAPS): 0.005 c %
STRAW THEBAINE ([2]; METHYL JAS .15 L/ha at GCAPS): 0.033 c %
CAPSULE/SEED RATIO ([2]; METHYL JAS .3 L/ha at EF): 0.581 a
STRAW CODEINE ([2]; METHYL JAS .3 L/ha at EF): 0.075 a %
STRAW MORPHINE ([2]; METHYL JAS .3 L/ha at EF): 2.09 a %
STRAW O'PAVINE ([2]; METHYL JAS .3 L/ha at EF): 0.011 a %
STRAW THEBAINE ([2]; METHYL JAS .3 L/ha at EF): 0.051 a %
CAPSULE/SEED RATIO ([2]; METHYL JAS .3 L/ha at GCAPS): 0.577 a
STRAW CODEINE ([2]; METHYL JAS .3 L/ha at GCAPS): 0.042 c %
STRAW MORPHINE ([2]; METHYL JAS .3 L/ha at GCAPS): 2.04 a %
STRAW O'PAVINE ([2]; METHYL JAS .3 L/ha at GCAPS): 0.004 c %
STRAW THEBAINE ([2]; METHYL JAS .3 L/ha at GCAPS): 0.029 c %
CAPSULE/SEED RATIO [3]: 0.685 c
CODEINE kg/ha [3]: 1.104 a kg/ha
MORPHINE kg/ha [3]: 19.99 b kg/ha
ORIPAVINE kg/ha [3]: 7.853 c kg/ha
SEED kg/ha [3]: 1886 bc kg/ha
STRAW CODEINE % [3]: 0.059 a %
STRAW MORPHINE % [3]: 1.07 b %
STRAW O'PAVINE % [3]: 0.422 b %
STRAW THEBAINE % [3]: 1.028 c %
STRAW kg/ha [3]: 1863 b kg/ha
THEBAINE kg/ha [3]: 19.124 c kg/ha
YIELD kg/ha [3]: 3.75 a kg/ha
